Entries after “also recorded” stand apart in the source; their conditions may differ.
Experiments:
Format in all cases: cell-based
[1] = tested on: mouse liver cells (Hepa1-6 cell line); assay: Ketone production (beta-hydroxybutyrate in medium) by mouse liver cells; settings: for beta-hydroxybutyrate production, fatty acid provided alone: provided alone to liver cells at 1 μM, 5 μM and 10 μM, 6 h ketogenic phase; for beta-hydroxybutyrate production when combined with 100 μM OA, versus 100 μM OA alone: test fatty acid 1 μM to 10 μM (1, 5, 10 μM) + 100 μM oleic acid; for production of ketones from 100 μM fatty acid blend (K-one): test fatty acid within 1 μM to 10 μM + 100 μM fatty acid blend; for ketone production in the absence of a ketogenic fat blend: 5 μM each, alone or in combination
Procedure: An assay to measure ketone production in mouse liver cells (Hepa1-6 cell line) was used wherein cells were first grown to a monolayer (growth phase), then exposed to starvation to deplete cellular lipid stores and subsequently brought into a ketogenic phase wherein cells were cultured in presence of oleic acid or a ketogenic diet fat blend with or without the presence of one of C2, C4, C6 fatty acids, citrate and nicotinamide riboside (herein also referred to as C2, C4, C6, citrate and NR). The ketone body production was subsequently determined by measurement of beta-hydroxybutyrate in the cell culture medium according to the details set out below:
Starvation phase: At the end of the growth phase the cells formed a monolayer. The medium was exchanged for DMEM containing 1 mM glucose and antibiotics (1% penicillin & streptomycin) but no FBS. The medium was further supplemented with L-carnitine (a required co-factor for the uptake of fatty acids into the mitochondria, where fatty acids are turned into ketones). The cells were incubated in this medium for 24 hours. During this time, the cells were vastly deprived of glucose, lipids and hormones contained in FBS, forcing them to consume and empty their lipid stores. […] Moreover, the starvation phase is thought to induce specific metabolic changes that maximize the production of ketones.
Ketogenic phase: At the end of the starvation phase, the medium was exchanged for Krebs-Henseleit buffer (KHB) supplemented with the test nutrients (single fatty acids and fatty acid blend shown in table 1) and L-carnitine.
The fatty acid blend is contained in a similar fatty acid composition to the one used in a ketogenic diet (K-one). The content of every fatty acid in the blend is given as the molar ratio to Oleic acid (OA), whose molar content is set to 1. Dilutions of this blend were used to determine the dose response curve in FIGS. 1B and 1D. C2 and C4 are not included in the blend.
KHB is composed of salts and bicarbonate as a chemical buffer to maintain the osmotic pressure and acidity (pH) at physiological levels. Medium and long chain fatty acids are coupled to bovine serum albumin prior to the assay to make them soluble in KHB and allow their efficient uptake by the cells. The coupling is physiological since in humans, medium and long chain fatty acids are also normally coupled to albumin for transport in the blood circulation. Short chain fatty acids (C2, C4) were not coupled to albumin in the assay since they are water-soluble and circulate freely in humans. The cells were incubated for 6 hours at 37° C. During this time, they produce ketones from the test nutrients with little to no interference from other nutrients and secrete β-hydroxybutyrate (β-Hb) into the medium.
β-Hb measurements: At the end of the ketogenic phase, the whole medium was collected and dried by vacuum centrifugation for 20 hours at 21° C. The dry pellet was resuspended in a small volume of assay buffer to yield a 10-20-fold higher β-Hb concentration than in the medium. The samples were deproteinized using spin columns to measure the free unbound fraction of R-Hb. […] The Fluorescence was measured on a fluorescence microplate reader and is directly proportional to the β-Hb concentration in the sample within a range of 0.1 μM to 50 μM β-Hb.

[2] = tested on: mouse liver cells (Hepa1-6 cell line); assay: Propionate viability assay (ATP content, bioluminescence)
Procedure: Starvation phase: At the end of the growth phase the cells formed a monolayer. The medium was exchanged for DMEM containing 1 mM glucose and antibiotics (1% penicillin & streptomycin) but no FBS. The medium was further supplemented with L-carnitine (a required co-factor for the uptake of fatty acids into the mitochondria, where fatty acids are turned into ketones). […] The cells were incubated in this medium for 24 hours.

[3] = tested on: NAD+ depleted mouse liver cells (Hepa1-6 cells); assay: NAD+ replenishment of NAD+ depleted liver cells by NAD+ precursors
Procedure: An assay was developed to measure NAD+ replenishment of NAD+ depleted mouse liver cells (Hepa1-6 cells) by NAD+ precursors under ketogenic diet-like conditions. In this assay, mouse liver cells were starved of glucose and depleted of NAD+ through incubation in a very low glucose (1 mM) medium free of vitamin B3, Trp and FBS and supplemented with 10 nM of an NAD+ depleting drug called FK866. Thereafter, the cells were fed with NR or NAM or Niacin (provided as a combination of NAM and nicotinic acid in a 1:1 molar ratio) or Trp to replenish the cells with NAD+. At the end of the supplementation phase, the cells were scraped and extracted using the NAD+ extraction buffer of the EnzyChrom™ NAD/NADH Assay Kit from BioAssay Systems. The NAD+ content of the cells was determined with the same kit following the manufacturer's manual. The NAD+ measurement is based on a […] reaction, in which NAD+ is reduced to NADH, which in turn reduces a formazan (MTT) reagent. The intensity of the reduced product color, measured at 565 nm, is proportional to the NAD+ concentration in the sample. This assay is highly specific for NAD+ and has minimal interference (<1%) by NADP+ or NADPH.

[4] = tested on: NAD+ depleted mouse liver cells; assay: Ketone production of NAD+ depleted liver cells replenished with NR; settings: NR 10 μM
Procedure: To measure the impact of replenishing NAD+ in liver cells with NR on ketone production, mouse liver cells were nutrient-deprived in medium containing low (1 mM) glucose and L-carnitine, but no fetal bovine serum, and no NAD+ precursors in the form of vitamin B3 (Niacin, NA, NAM) or Trp, Concomitantly the cells were treated with the NAD+ depleting drug FK866. These conditions created ketogenic diet like nutrient conditions and depleted the cells of NAD+. After 18 hours of incubation, FK866 was removed from the medium and a concentration range of NR was added to replenish NAD+ in liver cells. After 24 hours, the cells were switched to Krebs-Henseleit buffer (KHB) containing L-carnitine and a concentration range (1 μM to 100 μM) of oleic acid, a long chain fatty acid, for 6 hours to induce and measure the production and secretion of b-hydroxybutyrate (PHB) into the medium.

CC(=O)O [C2, acetic acid]
beta-hydroxybutyrate production when combined with 100 μM fatty acid blend, versus blend alone ([1]; 1 μM or 10 μM C2 + 100 μM fatty acid blend (K-one)): slightly greater production of PHb
beta-hydroxybutyrate production, fatty acid provided alone [1]: does not yield any ketones
beta-hydroxybutyrate production, fatty acid provided alone ([1]; listed as 02): virtually no bHB
beta-hydroxybutyrate production when combined with 100 μM OA, versus 100 μM OA alone [1]: more PHb than 100 μM OA alone; also recorded: enhances the production of ketones
production of ketones from 100 μM fatty acid blend (K-one) [1]: enhances the production of ketones

CCC(=O)O [C3, propionic acid]
cytotoxicity, long-term assessment ([2]; 300 uM to 10 mM C3, 24-hour starvation plus 6-hour ketogenic phase): evident for the entire dose-range
cytotoxicity, short-term exposure ([2]; 10 mM C3, 6-hours of exposure (ketogenic phase)): Cytotoxicity was already noted
cytotoxicity (ATP content) over the concentration range ([2]; C3 to 10 mM as printed): dose-dependent increase in cytotoxicity
reduction of beta-hydroxybutyrate yield compared to 100 μM fatty acid blend alone ([1]; 1 μM, 5 μM and 10 μM C3 + 100 μM fatty acid blend): more than 60%
beta-hydroxybutyrate production, fatty acid provided alone [1]: yielded no PHb
beta-hydroxybutyrate production when combined with 100 μM OA, versus 100 μM OA alone [1]: less PHb than 100 μM OA alone; also recorded: inhibits the top-level production of ketones
production of ketones from 100 μM fatty acid blend (K-one) [1]: dose-dependent manner; also recorded: inhibits the top-level production of ketones

CCCC(=O)O [C4, butyric acid]
ketone production in the absence of a ketogenic fat blend ([1]; no fat blend): hardly any ketones
beta-hydroxybutyrate production when combined with 100 μM fatty acid blend, versus blend alone ([1]; 10 μM C4 + 100 μM fatty acid blend (K-one)): more βHb than providing the 100 μM fatty acid blend alone
ketone production from a concentration range of fatty acid blend ([1]; fixed 10 μM C4 + 1 μM to 100 μM fatty acid blend (K-one), versus blend without C4): increasingly enhanced the production of ketones
beta-hydroxybutyrate production, fatty acid provided alone [1]: hardly yielded any PHb
beta-hydroxybutyrate production when combined with 100 μM OA, versus 100 μM OA alone [1]: more PHb than providing 100 μM OA alone; also recorded: potentiates the production of ketones
production of ketones from 100 μM fatty acid blend (K-one) [1]: potentiates the production of ketones

CCCCCC(=O)O [C6, caproic acid]
ketone production in the absence of a ketogenic fat blend ([1]; no fat blend): hardly any ketones
concentration above which the fatty acid starts to be turned as a substrate into beta-hydroxybutyrate ([1]; dose-response curve of the fatty acid alone, 1 μM to 100 μM): above 10 μM
beta-hydroxybutyrate production when combined with 100 μM OA, versus 100 μM OA alone [1]: potentiates the production of ketones
production of ketones from 100 μM fatty acid blend (K-one) [1]: potentiates the production of ketones

O=C(/C=C/c1cccnc1)NCCCCC1CCN(C(=O)c2ccccc2)CC1 [FK866, reference compound]
depletion of NAD+ relative to baseline NAD+ content of untreated liver cells ([3]; 10 nM FK866, very low glucose medium): ~70%

NC(=O)c1ccc[n+]([C@@H]2O[C@H](CO)[C@@H](O)[C@H]2O)c1 [NR, nicotinamide riboside]
increase of NAD+ content versus equimolar amounts of NAM or Niacin ([3]; 1 mM): significantly greater extent
increase of NAD+ content versus equimolar amounts of Niacin ([3]; lower concentrations below 150 μM): greater extent
NAD+ content of NAD+ depleted liver cells after provision ([3]; within 24 hours of treatment, concentration range): dose-dependently replenishes NAD+ content to and above this baseline
top-level production of ketones ([4]; 150 μM and 1000 μM for 24 h, then oleic acid 1 μM to 100 μM for 6 h): increased
NAD+ content ([4]; 150 μM and 1000 μM, ketogenic diet like nutrient conditions): increased

CCCCCCCC/C=C\CCCCCCCC(=O)O [OA, oleic acid, reference compound]
concentration at which top-level (maximized) ketone production is achieved ([1]; ketogenic substrate alone, dose-response curve): 100 µM

O=C(O)CC(O)(CC(=O)O)C(=O)O [citrate]
increase of ketone production from the fat blend ([1]; 200 μM to 1000 μM citrate + 100 μM fatty acid blend (K-one)): 10-20%
ketone production, citrate provided alone ([1]; citrate alone, no fat blend): yielded no ketones
